From patent US5547958A, “N-(8α-ergolinyl)-amides” (Schering Aktiengesellschaft, priority 1989, dated 1996)

System: behavior stereotypes on rats (masticatory, licking, or gnawing movements)
Assay: Stereotype-releasing effectiveness on rats 1 hour after i.p. pretreatment (dopamine agonistic action)
Format: in vivo
Settings: probit analysis, n = 8; for ED50 (effective dose, stereotype-releasing effectiveness): 60th-62nd min p.i.
Description: The dopamine agonistic action was determined according to Horowski, R. and Wachtel, H. Eur. J. Pharmaz. col. 36: 373-383, 1976. One hour after i.p. pretreatment with test substance or vehicle, the presence of behavior stereotypes on rats (masticatory, licking, or gnawing movements) was determined for 2 minutes (60th-62nd min. p.i.).
Stereotype-releasing effectiveness on rats 1 hour
after i.p. pretreatment. Effective doses (ED50) with 95%
confidence limit were determined with the help of probit

Row | Structure (SMILES) | ED50 (effective dose, stereotype-releasing effectiveness) | 95% Confidence Limit of ED50
1 | CCCN1CC(NC(=S)SC)C[C@@H]2c3cccc4[nH]c(C)c(c34)C[C@H]21 (stereo partly shown) [A, N(2-methyl-6-n-propyl-8ergolinyl)-dithiocarbamic acid methyl ester] | 0.080 | 0.010-0.170
2 | CCCN1CC(NC=S)C[C@@H]2c3cccc4[nH]c(C)c(c34)C[C@H]21 (stereo partly shown) [B, N(2-methyl-6-n-propyl-8ergolinyl)-thioformamide] | 0.050 | 0.034-0.079
